# From patent US20230203043A1, “NOVEL IMIDAZOPYRAZINE DERIVATIVES” (Hoffmann-La Roche Inc., priority 2020, published 2023)
# Counter-ions that a name gives are not always drawn.
# Test system: Acinetobacter baumannii ATCC17961
# Assay: Antimicrobial susceptibility testing: 90% growth inhibitory concentration (IC90) determination in Iso-Sensitest broth, OD600 growth
# Format: cell-based
# Details: Acinetobacter baumannii, ATCC17961, 16 h, read-out: A. baumannii ATCC 17961 IC90 (uM), strain ATCC 17961, OD600 growth over 16 h
# How it was run: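 OD600 read every 20 min for 16 h at 35±2° C; inhibition taken in log phase to derive IC90. Twofold, 10-point dilutions (e.g. 50–0.097 μM final), inoculum ~5×10^(5) CFU/ml.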
row,Molecule,IC90 [µM]
1,"N[C@H]1CC[C@H](C(=O)N2CCN(C(=O)c3ccc(Nc4nccn5c(-c6cn(CC(F)F)nc6C(F)(F)F)cnc45)cc3Cl)CC2)C1 [Example 583, (4-((1S,3S)-3-aminocyclopentane-1-carbonyl)piperazin-1-yl) (2-chloro-4-((3-(1-(2,2-difluoroethyl)-3-(trifluoromethyl)-1H-pyrazol-4-yl)imidazo[1,2-a]pyrazin-8-yl)amino)phenyl) methanone formate]",0.347
2,"Cc1cc(Nc2nccn3c(-c4cn(CC#N)nc4C(F)(F)F)cnc23)ccc1C(=O)N1CCN(C(=O)C2(O)CCNCC2)CC1 [Example 425, formic acid; 2-[4-[8-[4-[4-(4-hydroxypiperidine-4-carbonyl]piperazine-1-carbonyl]-3-methylanilino]imidazo[1,2-a]pyrazin-3-yl]-3-(trifluoromethyl)pyrazol-1-yl]acetonitrile]",0.691
3,"C[C@@H](NC(=O)c1ccc(Nc2nccn3c(-c4cn(CC#N)nc4C(F)(F)F)cnc23)cc1Cl)C(=O)N1CC[C@H](N)C1 [Example 665, N-[(1R)-2-[(3S)-3-aminopyrrolidin-1-yl]-1-methyl-2-oxo-ethyl]-2-chloro-4-[[3-[1-(cyanomethyl)-3-(trifluoromethyl)pyrazol-4-yl]imidazo[1,2-a]pyrazin-8-yl]amino]benzamide formate]",0.29
4,"Cc1cc(Cn2cc(-c3cnc4c(Nc5ccc(C(=O)N6CCNCC6)c(Cl)c5)nccn34)c(C(F)(F)F)n2)nn1C [Example 185, [2-chloro-4-[[3-[1-[(1,5-dimethylpyrazol-3-yl)methyl]-3-(trifluoromethyl)pyrazol-4-yl]imidazo[1,2-a]pyrazin-8-yl]amino]phenyl]-piperazin-1-ylmethanone formate]",0.65
5,"CCc1cc(Nc2nccn3c(-c4cn(CC(F)F)nc4C(F)(F)F)cnc23)ccc1C(=O)NCCNC(=O)CN [Example 611, N-(2-(2-aminoacetamido)ethyl)-4-((3-(1-(2,2-difluoroethyl)-3-(trifluoromethyl)-1H-pyrazol-4-yl)imidazo[1,2-a]pyrazin-8-yl)amino)-2-ethylbenzamide formate]",0.11
6,"CCc1cc(Nc2nccn3c(-c4cn(CC#N)nc4C(F)(F)F)cnc23)ccc1C(=O)NCCNC(=O)CCN [Example 566, N-(2-(3-aminopropanamido)ethyl)-4-((3-(1-(cyanomethyl)-3-(trifluoromethyl)-1H-pyrazol-4-yl)imidazo[1,2-a]pyrazin-8-yl)amino)-2-ethylbenzamide formate]",0.477
7,"CCc1cc(Nc2nccn3c(-c4cn(CC(F)F)nc4C(F)(F)F)cnc23)ccc1C(=O)NCC(=O)N1CCCC1CN (stereo not shown) [Example 528, N-[2-[2-(aminomethyl)pyrrolidin-1-yl]-2-oxo-ethyl]-4-[[3-[1-(2,2-difluoroethyl)-3-(trifluoromethyl)pyrazol-4-yl]imidazo[1,2-a]pyrazin-8-yl]amino]-2-ethyl-benzamide formate]",0.243
8,"CCc1cc(Nc2nccn3c(-c4cn(CC#N)nc4C(F)(F)F)cnc23)ccc1C(=O)NCC(=O)N1CC(N)C1 [Example 716, N-[2-(3-aminoazetidin-1-yl)-2-oxo-ethyl]-4-[[3-[1-(cyanomethyl)-3-(trifluoromethyl)pyrazol-4-yl]imidazo[1,2-a]pyrazin-8-yl]amino]-2-ethyl-benzamide formate]",0.426

# Same assay, conditions: Acinetobacter baumannii, ATCC17961, 16 h, strain ATCC 17961, OD600 growth over 16 h, read-out: A. baumannii ATCC 17961 IC90
row,Molecule,IC90 [µM]
1,"NC1CC(NC(=O)CNC(=O)c2ccc(Nc3nccn4c(-c5c[nH]nc5C(F)(F)F)cnc34)cc2Cl)C1 (stereo not shown) [Example 138, N-[2-[(3-aminocyclobutyl)amino]-2-oxoethyl]-2-chloro-4-[[3-[3-(trifluoromethyl)-1H-pyrazol-4-yl]imidazo[1,2-a]pyrazin-8-yl]amino]benzamide]",2.01
2,"Cc1cc(Nc2nccn3c(-c4cn(CC(F)F)nc4C(F)(F)F)cnc23)cc(F)c1C(=O)N[C@H](C)CNC(=O)[C@H]1C[C@@H](N)C1 [Example 669, N-((R)-1-((1s,3S)-3-aminocyclobutane-1-carboxamido)propan-2-yl)-4-((3-(1-(2,2-difluoroethyl)-3-(trifluoromethyl)-1H-pyrazol-4-yl)imidazo[1,2-a]pyrazin-8-yl)amino)-2-fluoro-6-methylbenzamide]",0.3
3,"CCc1cc(Nc2nccn3c(-c4cn(Cc5ccncn5)nc4C(F)(F)F)cnc23)ccc1C(=O)NC [Example 282, 2-ethyl-N-methyl-4-[[3-[1-(pyrimidin-4-ylmethyl)-3-(trifluoromethyl)pyrazol-4-yl]imidazo[1,2-a]pyrazin-8-yl]amino]benzamide]",0.701
4,"NCCCNC(=O)c1ccc(Nc2nccn3c(-c4c[nH]nc4C(F)(F)F)cnc23)cc1Cl [Example 364, N-(3-aminopropyl)-2-chloro-4-[[3-[3-(trifluoromethyl)-1H-pyrazol-4-yl]imidazo[1,2-a]pyrazin-8-yl]amino]benzamide]",1.13
5,"O=C(c1ccc(Nc2nccn3c(-c4c[nH]nc4C(F)(F)F)cnc23)cc1Cl)N1CCN(C(=O)[C@H]2CCCN2)CC1 [Example 198, [2-chloro-4-[[3-[3-(trifluoromethyl)-1H-pyrazol-4-yl]imidazo[1,2-a]pyrazin-8-yl]amino]phenyl]-[4-[(2R)-pyrrolidine-2-carbonyl]piperazin-1-yl]methanone]",0.216
6,"C#CCn1cc(-c2cnc3c(Nc4ccc(C(=O)N5CCN(C(=O)[C@H](N)C(C)C)CC5)c(CC)c4)nccn23)c(C(F)F)n1 [Example 773, (R)-2-amino-1-(4-(4-((3-(3-(difluoromethyl)-1-(prop-2-yn-1-yl)-1H-pyrazol-4-yl)imidazo[1,2-a]pyrazin-8-yl)amino)-2-ethylbenzoyl)piperazin-1-yl)-3-methylbutan-1-one]",0.978
7,"CCc1cc(Nc2nccn3c(-c4cn(CC#N)nc4C(F)(F)F)cnc23)ccc1C(=O)NCC(=O)N1CCNCC1 [Example 499, 4-[[3-[1-(cyanomethyl)-3-(trifluoromethyl)pyrazol-4-yl]imidazo[1,2-a]pyrazin-8-yl]amino]-2-ethyl-N-(2-oxo-2-piperazin-1-yl-ethyl)benzamide formate]",0.218
8,"CCc1cc(Nc2nccn3c(-c4cn(CC(F)F)nc4C(F)(F)F)cnc23)ccc1C(=O)NCCOC[C@H](C)N [Example 153, N-[2-[(2S)-2-aminopropoxy]ethyl]-4-[[3-[1-(2,2-difluoroethyl)-3-(trifluoromethyl)pyrazol-4-yl]imidazo[1,2-a]pyrazin-8-yl]amino]-2-ethylbenzamide]",0.311
9,"CCc1cc(Nc2nccn3c(-c4cn(CC#N)nc4SC)cnc23)ccc1C(=O)NCCOCCN [Example 831, N-(2-(2-aminoethoxy)ethyl)-4-((3-(1-(cyanomethyl)-3-(methylthio)-1H-pyrazol-4-yl)imidazo[1,2-α]pyrazin-8-yl)amino)-2-ethylbenzamide]",0.32
10,"N#CCn1cc(-c2cnc3c(Nc4ccc(C(=O)N5CCC(NC(=O)[C@@H]6C[C@@H](O)CN6)CC5)c(Cl)c4)nccn23)c(C(F)(F)F)n1 [Example 143, (2S,4R)-N-[1-[2-chloro-4-[[3-[1-(cyanomethyl)-3-(trifluoromethyl)pyrazol-4-yl]imidazo[1,2-a]pyrazin-8-yl]amino]benzoyl]piperidin-4-yl]-4-hydroxypyrrolidine-2-carboxamide]",0.555
11,"NC1CCN(C(=O)c2ccc(Nc3nccn4c(-c5cn(CC(F)F)nc5C(F)(F)F)cnc34)cc2Cl)CC1 [Example 103, (4-aminopiperidin-1-yl)-[2-chloro-4-[[3-[1-(2,2-difluoroethyl)-3-(trifluoromethyl)pyrazol-4-yl]imidazo[1,2-a]pyrazin-8-yl]amino]phenyl] methanone]",0.195
12,"CCc1cc(Nc2nccn3c(-c4cn(CC#N)nc4C(F)(F)F)cnc23)ccc1C(=O)NCCNC(=O)[C@H]1CC[C@H](N)C1 [Example 491, N-(2-((1S,3S)-3-aminocyclopentane-1-carboxamido)ethyl)-4-((3-(1-(cyanomethyl)-3-(trifluoromethyl)-1H-pyrazol-4-yl)imidazo[1,2-a]pyrazin-8-yl)amino)-2-ethylbenzamide formate]",0.195
13,"CCc1cc(Nc2nccn3c(-c4cn(CC(F)F)nc4C(F)(F)F)cnc23)ccc1C(=O)NCCNC(=O)[C@H]1CC[C@H](N)C1 [Example 492, N-(2-((1S,3S)-3-aminocyclopentane-1-carboxamido)ethyl)-4-((3-(1-(2,2-difluoroethyl)-3-(trifluoromethyl)-1H-pyrazol-4-yl)imidazo[1,2-a]pyrazin-8-yl)amino)-2-ethylbenzamide formate]",0.2
14,"CNC(=O)c1ccc(Nc2nccn3c(-c4cn(CC(N)=O)nc4C(F)(F)F)cnc23)cc1Cl [Example 357, 4-[[3-[1-(2-amino-2-oxoethyl)-3-(trifluoromethyl)pyrazol-4-yl]imidazo[1,2-a]pyrazin-8-yl]amino]-2-chloro-N-methylbenzamide]",1.59

# Same assay, conditions: strain ATCC 17961, OD600 growth over 16 h, read-out: A. baumannii ATCC 17961 IC90
row,Molecule,IC90 [µM]
1,"4-[2-chloro-4- [[3-[1-(2- cyanoethyl)-3- pyrazol-4- yl]imidazo[1,2- a]pyrazin-8- yl]amino]benzoyl]- N-[(3R)- pyrrolidin-3- yl]piperazine-1- carboxamide formate [Example 261]",0.521
2,"C#CCn1cc(-c2cnc3c(Nc4cc(C)c(C(=O)NCCOCCN)c(F)c4)nccn23)c(C(F)(F)F)n1 [Example 59, N-[2-(2-aminoethoxy)ethyl]-2-fluoro-6-methyl-4-[[3-[1-prop-2-ynyl-3-(trifluoromethyl)pyrazol-4-yl]imidazo[1,2-a]pyrazin-8-yl]amino] benzamide]",0.216
3,"(3-aminoazetidin- 1-yl)-[2-chloro-4- [[3-[1-(2,2- difluoroethyl)-3- pyrazol-4- yl]imidazo[1,2- a]pyrazin-8- yl]amino]phenyl] methanone [Example 101]",0.138
